Where two headings read alike, the source gives them in different places.
Key:
Male Sprague-Dawley rats = experiment: Effect on energy expenditure of rats; assay type: in vivo; settings: percentage of rate of rats dosed with water; for response vs control in vivo at 3.6 mg/kg / response vs control in vivo at 8.9 mg/kg / response vs control in vivo at 32.6 mg/kg / response vs control in vivo at 7.1 mg/kg / response vs control in vivo at 3.7 mg/kg / response vs control in vivo at 7.2 mg/kg / response vs control in vivo at 4.3 mg/kg / response vs control in vivo at 4 mg/kg / response vs control in vivo at 8.2 mg/kg / response vs control in vivo at 4.1 mg/kg / response vs control in vivo at 21.6 mg/kg: Rattus norvegicus, po; for response vs control in vivo at 8.9 mg/kg: 8.9 mg/kg p.o.; for response vs control in vivo at 32.6 mg/kg: 32.6 mg/kg p.o.; for response vs control in vivo at 7.1 mg/kg: 7.1 mg/kg p.o.; for response vs control in vivo at 3.7 mg/kg: 3.7 mg/kg p.o.; for response vs control in vivo at 7.2 mg/kg: 7.2 mg/kg p.o.; for response vs control in vivo at 4.3 mg/kg: 4.3 mg/kg p.o.; for response vs control in vivo at 4 mg/kg: 4.0 mg/kg p.o.; for response vs control in vivo at 8.2 mg/kg: 8.2 mg/kg p.o.; for response vs control in vivo at 4.1 mg/kg: 4.1 mg/kg p.o.; for response vs control in vivo at 21.6 mg/kg: 21.6 mg/kg p.o.
Description: Water was provided ad lib at all times. The compounds were administered orally in water to 3 or 4 rats. A further 4 rats were dosed orally with water. The rats were placed in boxes through which air was drawn and the oxygen content of the air leaving the boxes was measured. The energy expenditure of the rats was calculated for 3 hours and for 21 hours after dosing from the volume of air leaving the boxes and its oxygen content, following the principles described by J.B. de V. Weir, J. Physiol. (London) 109, 1-9 (1949). The results are expressed as a percentage of the rate of energy expenditure of the rats dosed with water.

[1] = tested on: electrically paced left atrium; experiment: Isolated rat atria: tension of the electrically paced left atrium; settings: for EC50: molar concentration producing 50% of the compound's own maximum response; for Emax: read-out: Tension Intrinsic Activity
Description: (§1) Sprague-Dawley male rats (300-400g) are killed and the right and left atria dissected out independently and mounted on a combined tissue holder/electrode. […] The rate of the spontaneously beating right atrium (via an isometric transducer and a ratemeter) and the tension of the electrically paced left atrium (via an isometric transducer) are recorded on a M19 chart recorder.
(§2) After an initial stabilization period, the tissues are exposed to a maximal concentration of isoprenaline (10-^7M). The tissues are then washed several times until rate and tension return to baseline level. A dose-response curve to the test compound is then carried out.
(§3) Responses to each concentration of test compound are expressed as a percentage of the maximal responses to isoprenaline. Results are given in the form of (a) intrinsic activity (maximal effect of test compound with respect to isoprenaline maximum, i.e. isoprenaline intrinsic activity = 1) and (b) EC50 (the molar concentration at which the test compound produces 50% of its own maximum response).

[2] = tested on: spontaneously beating right atrium; experiment: Isolated rat atria: rate of the spontaneously beating right atrium; settings: for EC50: molar concentration producing 50% of the compound's own maximum response; for Emax: read-out: Rate Intrinsic Activity
Description: as §1, §2, §3

[3] = Krebs solution at 32°C, maximal effect relative to isoprenaline maximum (isoprenaline = 1)
[4] = Rattus norvegicus, Krebs solution at 32°C, maximal effect relative to isoprenaline maximum (isoprenaline = 1)
[5] = Rattus norvegicus, Krebs solution at 32°C
[6] = 3 h, 0-3h after dosing, read-out: Mean Energy Expenditure 0-3h
[7] = 21 h, 0-21h after dosing, read-out: Mean Energy Expenditure 0-21h
[8] = Rattus norvegicus, organ bath at 29°C, maximal effect relative to isoprenaline maximum (isoprenaline = 1)
[9] = Rattus norvegicus, organ bath at 29°C

CC(Cc1ccc2c(c1)NC(=O)CO2)NCC(O)c1cccc(Cl)c1 (centres unmarked) [8 (14:86), 6-[2-[2-(3-Chlorophenyl)-2-hydroxyethylamino]-2-methylethyl]-2H-1,4-benzoxazin-3-(4H)-one]
response vs control in vivo at 3.6 mg/kg (Male Sprague-Dawley rats; 3 h, 3.6 mg/kg p.o., 0-3h after dosing, read-out: Mean Energy Expenditure 0-3h): 125% | response vs control in vivo at 3.6 mg/kg (Male Sprague-Dawley rats; 21 h, 3.6 mg/kg p.o., 0-21h after dosing, read-out: Mean Energy Expenditure 0-21h): 105% | Tension Intrinsic Activity [1, 3]: 0.20 | EC50 ([1]; Krebs solution at 32°C): 3800 nM | Rate Intrinsic Activity [2, 3]: 0.16 | EC50 ([2]; Krebs solution at 32°C): 750 nM

CC(Cc1ccc2c(c1)NC(=O)CO2)NCC(O)c1cccc(Cl)c1 (centres unmarked) [8 (82:18), 6-[2-[2-(3-chlorophenyl)-2-hydroxyethylamino]-2-methylethyl]-2H-1,4-benzoxazin-3-(4H)-one]
Mean Energy Expenditure 0-3h (Male Sprague-Dawley rats; 3.6 mg/kg p.o., 0-3h after dosing): 122% | Mean Energy Expenditure 0-21h (Male Sprague-Dawley rats; 3.6 mg/kg p.o., 0-21h after dosing): 106% | Emax [1, 4]: 12% | EC50 [1, 5]: 3200 nM | EC50 ([2]; Krebs solution at 32°C): 240 nM | Emax [2, 4]: 29%

CC(COc1ccc2c(c1)NC(=O)CO2)NCC(O)COc1ccccc1O (centres unmarked) [Example 5, 6-[2-[3-(2-hydroxyphenoxy)-2-hydroxypropylamino]-2-methylethoxy]-2H-1,4-benzoxazin-3-(4H)-one hemifumarate]
response vs control in vivo at 8.9 mg/kg (Male Sprague-Dawley rats; [6]): 111% | response vs control in vivo at 8.9 mg/kg (Male Sprague-Dawley rats; [7]): 100% | Emax [2, 4]: 18% | EC50 [2, 5]: 35 nM

CC(Cc1ccc2c(c1)NC(=O)CO2)NCC(O)COc1ccccc1O (centres unmarked) [Example 9, 6-[2-[3-(2-hydroxyphenoxy)-2-hydroxypropylamino]-2-methylethyl]-2H-1,4-benzoxazin-3-(4H)-one]
Emax [1, 4]: 12% | EC50 [1, 5]: 28 nM | Emax [2, 4]: 15% | EC50 [2, 5]: 30 nM

CC(Cc1ccc2c(c1)NC(=O)CO2)NCC(O)c1ccccc1 (centres unmarked) [Example 10, 6-[2-[2-Phenyl-2-hydroxyethylamino]-2-methylethyl]-2H-1,4-benzoxazin-3-(4H)-one]
response vs control in vivo at 32.6 mg/kg (Male Sprague-Dawley rats; [6]): 122% | response vs control in vivo at 32.6 mg/kg (Male Sprague-Dawley rats; [7]): 101%

CC(Cc1ccc2c(c1)NC(=O)CO2)NCC(O)COc1ccccc1 (centres unmarked) [Example 11, 6-[2-[3-Phenoxy-2-hydroxypropylamino]-2-methylethyl]-2H-1,4-benzoxazin-3-(4H)-one]
response vs control in vivo at 7.1 mg/kg (Male Sprague-Dawley rats; [6]): 119% | response vs control in vivo at 7.1 mg/kg (Male Sprague-Dawley rats; [7]): 108% | Emax [1, 4]: 11% | EC50 [1, 5]: 100 nM | Emax [2, 4]: 32% | EC50 [2, 5]: 53 nM

CC(COc1ccc2c(c1)N(C)C(=O)CO2)NCC(O)c1cccc(Cl)c1 (centres unmarked) [Example 12, 6-[2-[2-(3-Chlorophenyl)-2-hydroxyethylamino]-2-methylethoxy]-4-methyl-2H-1,4-benzoxazin-3-(4H)-one hemifumarate]
response vs control in vivo at 8.9 mg/kg (Male Sprague-Dawley rats; [6]): 109% | response vs control in vivo at 8.9 mg/kg (Male Sprague-Dawley rats; [7]): 97% | Emax [1, 8]: 90% | EC50 [1, 9]: 790 nM | Emax [2, 8]: 98% | EC50 [2, 9]: 29 nM

CC(Cc1ccc2c(c1)N(C)C(=O)CO2)NCC(O)c1cccc(Cl)c1 (centres unmarked) [Example 13, 6-[2-[2-(3-Chlorophenyl)-2-hydroxyethylamino]-2-methylethyl]-4-methyl-2H-1,4-benzoxazin-3-(4H)-one hemifumarate]
Emax [1, 8]: 54% | EC50 [1, 9]: 15000 nM | Emax [2, 8]: 64% | EC50 [2, 9]: 250 nM

CC(Cc1ccc2c(c1)NC(=O)CO2)NCC(O)COc1ccc(O)cc1 (centres unmarked) [Example 14, 6-[2-[3-(4-Hydroxyphenoxy)-2-hydroxypropylamino]-2-methylethyl]-2H-1,4-benzoxazin-3-(4H)-one]
response vs control in vivo at 3.7 mg/kg (Male Sprague-Dawley rats; [6]): 114% | response vs control in vivo at 3.7 mg/kg (Male Sprague-Dawley rats; [7]): 103% | Emax [1, 4]: 54% | EC50 [1, 5]: 1400 nM | Emax [2, 4]: 87% | EC50 [2, 5]: 400 nM

CC(COc1ccc2c(c1)NC(=O)CO2)NCC(O)c1ccc(O)cc1 (centres unmarked) [Example 15, 6-[2-[2-(4-Hydroxyphenyl)-2-hydroxyethylamino]-2-methylethoxy]-2H-1,4-benzoxazin-3-(4H)-one]
response vs control in vivo at 7.2 mg/kg (Male Sprague-Dawley rats; [6]): 126% | response vs control in vivo at 7.2 mg/kg (Male Sprague-Dawley rats; [7]): 103% | Emax [1, 4]: 88% | EC50 [1, 5]: 160 nM | Emax [2, 4]: 98% | EC50 [2, 5]: 44 nM

C=CCOc1ccccc1OCC(O)CNC(C)COc1ccc2c(c1)NC(=O)CO2 (centres unmarked) [Example 16, 6-[2-[3-(2-Allyloxyphenoxy)-2-hydroxypropylamino]-2-methyl-ethoxy]-2H-1,4-benzoxazin-3-(4H)-one]
response vs control in vivo at 4.3 mg/kg (Male Sprague-Dawley rats; [6]): 115% | response vs control in vivo at 4.3 mg/kg (Male Sprague-Dawley rats; [7]): 101%

COc1ccccc1OCC(O)CNC(C)COc1ccc2c(c1)NC(=O)CO2 (centres unmarked) [Example 17, 6-[2-[3-(2-Methoxyphenoxy)-2-hydroxypropylamino]-2-methyl-ethoxy]-2H-1,4-benzoxazin-3-(4H)-one]
response vs control in vivo at 4 mg/kg (Male Sprague-Dawley rats; [6]): 112% | response vs control in vivo at 4 mg/kg (Male Sprague-Dawley rats; [7]): 103% | Emax [2, 8]: 91% | EC50 [2, 9]: 8.6 nM

CC(COc1ccc2c(c1)NC(=O)CO2)NCC(O)COc1ccccc1 (centres unmarked) [Example 18, 6-[2-(2-Hydroxy-3-phenoxypropylamino)-2-methylethoxy]-2H-1,4-benzoxazin-3-(4H)-one]
response vs control in vivo at 3.7 mg/kg (Male Sprague-Dawley rats; [6]): 155% | response vs control in vivo at 3.7 mg/kg (Male Sprague-Dawley rats; [7]): 109% | Emax [2, 4]: 52% | EC50 [2, 5]: 11 nM

CC(COc1ccc2c(c1)NC(=O)CO2)NCC(O)COc1cccc2[nH]ccc12 (centres unmarked) [Example 19, 6-[2-[2-hydroxy-3-(indol-4-yloxy)propylamino]-2-methyl-ethoxy]-2H-1,4-benzoxazin-3-(4H)-one]
response vs control in vivo at 8.2 mg/kg (Male Sprague-Dawley rats; [6]): 116% | response vs control in vivo at 8.2 mg/kg (Male Sprague-Dawley rats; [7]): 114% | Emax [2, 8]: 54% | EC50 [2, 9]: 130 nM

CCc1cccc2cc(C(O)CNC(C)COc3ccc4c(c3)NC(=O)CO4)oc12 (centres unmarked) [Example 20, 6-[2-[2-(7-Ethylbenzofuran-2-yl)-2-hydroxyethylamino]-2-methylethoxy]-2H-1,4-benzoxazin-3-(4H)-one]
response vs control in vivo at 4.1 mg/kg (Male Sprague-Dawley rats; [6]): 110% | response vs control in vivo at 4.1 mg/kg (Male Sprague-Dawley rats; [7]): 107% | Emax [1, 8]: 113% | EC50 [1, 9]: 130 nM | Emax [2, 8]: 95% | EC50 [2, 9]: 63 nM

CC(COc1ccc2c(c1)NC(=O)CO2)NCC(O)COc1cc(O)cc(O)c1 (centres unmarked) [Example 21, 6-[2-[3-(3,5-Dihydroxyphenoxy)-2-hydroxypropylamino]-2-methylethoxy]-2H-1,4-benzoxazin-3-(4H)-one hemifumarate]
response vs control in vivo at 21.6 mg/kg (Male Sprague-Dawley rats; [6]): 110% | response vs control in vivo at 21.6 mg/kg (Male Sprague-Dawley rats; [7]): 105% | Emax [2, 8]: 85% | EC50 [2, 9]: 16 nM

Reference: patent publication EP0171702A1, “Benzoxazinone derivatives, preparation and use” (BEECHAM GROUP PLC, priority 1984, dated 1986)
